Measurements reported in patent publication US8501908B2, “Immunogenic peptides” (priority 2008, dated 2013).

What was measured:
Type in all cases: cell-based, human
[1] = system: PBMCs from DLBCL patients; test: γ-IFN release ELISPOT, PBMCs of DLBCL patients after short-term culture with peptides; set-up: γ-IFN response to peptides: unit not given here; conditions: for γ-IFN response to peptides: triplicate ELISPOT; for order of immunogenicity for eliciting CTLs: order PASD1(1), PASD1(2), PASD1(5), PASD1(3), PASD1(4)
[2] = system: PBMCs from healthy donors; test: γ-IFN release ELISPOT, PBMCs of healthy donors after short-term culture with peptides; conditions: triplicate ELISPOT, ± SD
[3] = system: OCI-Ly3 (DLBCL) cell line; test: 51Cr release cytolytic assay of peptide-specific CTL/TH cell lines; conditions: for lysis by CTL lines raised against the peptide: PASD1-positive HLA-A*0201-negative OCI-Ly3, 4 h 51Cr release
Procedure: (§1) A conventional ^51Cr-labelling release assay was used to investigate the ability of CTL and TH cell lines generated from DLBCL patients to lyse PASD1-positive tumour target cells. The target cell lines, consisting of the OCI-Ly3, SUDHL-6, KM-H2 and Thiel, were radiolabelled with 100 μCi ^51Cr for 90 minutes. […] The incubation period of the TH with the target cells was increased to 18 hours. Maximum ^51Cr release was determined following the addition of 10% Triton-X to the radiolabelled target cells and spontaneous release was assessed by adding RPMI1640/FCS to the target cells. The supernatant was harvested and counted in a gamma-counter (Beckmann, Heidelberg, Germany).

[4] = system: SUDHL-6 (DLBCL) cell line; test: as above; conditions: PASD1-negative SUDHL-6; for lysis by CTL lines raised against the peptide: 4 h 51Cr release
Procedure: as §1

[5] = system: Thiel (myeloma) cell line; test: as above; conditions: for lysis by CTL lines raised against the peptide: HLA-A*0201-positive PASD1-positive Thiel, 4 h 51Cr release, four patients
Procedure: as §1

KM-H2 (HL) cell line = test: 51Cr release cytolytic assay of peptide-specific CTL cell lines; conditions: HLA-A*0201-negative PASD1-positive KM-H2; 4 h 51Cr release
Procedure: as §1

[6] = PBMCs from a DLBCL patient stimulated in culture with PASD1(6) or PASD1(7) peptides, +/− SD

Sequence: DGFMITLSTDGVIICVAENI (listed as Homo sapiens) [PASD1(7)]
- TH γ-IFN response to peptides at time of diagnosis and after one year ([1]; DLBCL patients (FIG. 5), short term culture, p<0.05): significant
- γ-IFN response to peptides [1, 6]: 26 +/− 2
- γ-IFN response to peptides ([1]; Patient 1, De novo DLBCL, DRB1-0102, group Significant response, ± SD): 28 ± 4
- γ-IFN response to peptides ([1]; Patient 2, De novo DLBCL, DRB1-0101, group Significant response, ± SD): 46 ± 8
- γ-IFN response to peptides ([1]; Patient 3, De novo DLBCL, DRB1-0301, group Significant response, ± SD): 26 ± 4
- γ-IFN response to peptides ([1]; Patient 4, De novo DLBCL, DRB1-0102, group Significant response, ± SD): 44 ± 4
- γ-IFN response to peptides ([1]; Patient 8, De novo DLBCL, DRB1-1501, group Significant response, ± SD): 18 ± 2
- γ-IFN response to peptides ([1]; Patient 9, De novo DLBCL, DRB1-0301, group Significant response, ± SD): 18 ± 2
- γ-IFN response to peptides ([1]; Patient 10, De novo DLBCL, DRB1-0101, group No significant response, ± SD): 26 ± 2
- γ-IFN response to peptides ([1]; Patient 12, De novo DLBCL, DRB1-0401, group Significant response, ± SD): 36 ± 4
- γ-IFN response to peptides ([1]; Patient 15, De novo DLBCL, DRB1-1301, group No significant response, ± SD): 32 ± 2
- γ-IFN response to peptides ([1]; Patient 17, De novo DLBCL, DRB1-0301, group No significant response, ± SD): 18 ± 4
- γ-IFN response to peptides ([1]; Patient 18, De novo DLBCL, DRB1-0401, group No significant response, ± SD): 26 ± 2
- γ-IFN response to peptides ([1]; Patient 19, De novo DLBCL, DRB1-1104, group No significant response, ± SD): 26 ± 2
- γ-IFN response to peptides ([1]; Patient 20, De novo DLBCL, DRB1-1303, group No significant response, ± SD): 14 ± 2
- γ-IFN response to peptides ([1]; Patient 21, De novo DLBCL, DRB1-0301, group No significant response, ± SD): 10 ± 2
- γ-IFN response to peptides ([1]; Patient 24, De novo DLBCL, DRB1-1301, group Significant response, ± SD): 38 ± 4
- γ-IFN response to peptides ([1]; Patient 28, Trans DLBCL, DRB1-0701, group No significant response, ± SD): 22 ± 6
- γ-IFN response to peptides ([1]; Patient 37, Trans DLBCL, DRB1-0103, group Significant response, ± SD): 32 ± 6
- γ-IFN response to peptides ([1]; Patient 48, T-cell rich DLBCL, DRB1-0301, group Significant response, ± SD): 56 ± 6
- γ-IFN response to peptides ([1]; Patient 61, De novo DLBCL, DRB1-0401, group No significant response, ± SD): 10 ± 4
- immunogenicity among patients studied ([1]; TH γ-IFN response, DLBCL patients): immunogenic in the majority of patients
- γ-IFN response to the PASD1(1) CTL peptide elicited by culture with the peptide ([1]; cells cultured 8-10 days with PASD1(6) or PASD1(7), Table 4): comparable
- order of immunogenicity for eliciting TH cell responses ([1]; from γ-IFN release assay, order PASD1(6), PASD1(7), PASD1(10), PASD1(9), PASD1(8)): most immunogenic
- γ-IFN response to peptides ([2]; Healthy donor HD 1, DRB1-0102): 20 ± 2
- γ-IFN response to peptides ([2]; Healthy donor HD 2, DRB1-0401): 8 ± 2
- γ-IFN response to peptides ([2]; Healthy donor HD 3, DRB1-0401): 10 ± 2
- γ-IFN response to peptides ([2]; Healthy donor HD 4, DRB1-0301): 20 ± 2
- γ-IFN response to peptides ([2]; Healthy donor HD 5, DRB1-0301): 22 ± 2
- lysis by TH cell lines specific for the peptide ([3]; PASD1-positive OCI-Ly3, 18 h 51Cr release): Significant dose dependent lysis
- lysis by TH cell lines specific for the peptide ([4]; 18 h 51Cr release): no significant lysis
- lysis by TH cell lines specific for the peptide ([5]; PASD1-positive Thiel, 18 h 51Cr release): Significant dose dependent lysis

Sequence: YLVGNVCIL (listed as Homo sapiens) [PASD1(2)]
- order of immunogenicity for eliciting CTLs ([1]; from γ-IFN release assay): more immunogenic
- lysis by CTL lines raised against the peptide [3]: not
- lysis by CTL lines raised against the peptide [4]: not
- lysis by CTL lines raised against the peptide [5]: dose dependent lysis
- lysis by CTL lines raised against the peptide (KM-H2 (HL) cell line): not

Sequence: ELSDSLGPV (listed as Homo sapiens) [PASD1(5)]
- order of immunogenicity for eliciting CTLs ([1]; from γ-IFN release assay): more immunogenic
- lysis by CTL lines raised against the peptide [3]: not
- lysis by CTL lines raised against the peptide [4]: not
- lysis by CTL lines raised against the peptide [5]: dose dependent lysis
- lysis by CTL lines raised against the peptide (KM-H2 (HL) cell line): not

Sequence: QLLDGFMITL (listed as Homo sapiens) [PASD1(1)]
- γ-IFN response to peptides [1, 6]: 30 +/− 4
- order of immunogenicity for eliciting CTLs ([1]; from γ-IFN release assay): most immunogenic
- lysis by CTL lines raised against the peptide [3]: not
- lysis by CTL lines raised against the peptide [4]: not
- lysis by CTL lines raised against the peptide [5]: dose dependent lysis
- cytolytic effect of peptide-stimulated cells ([5]; effector:target ratio of 5:1, all four patients): significant
- lysis by CTL lines raised against the peptide (KM-H2 (HL) cell line): not
